Where two headings read alike, the source gives them in different places.
How the values were obtained:
[1] = biological target: homophthalazine binding site; assay: Displacement of 3H-girisopam from the homophthalazine binding site in rat brain striatal membrane preparation; conditions: displacing 5 nM 3H-girisopam
Description: Ki values were calculated according to the following equation: Ki = IC50 :(1 +([L])/(KD)), [formula] wherein KD is the dissociation constant of the labelled ligand-receptor complex, [L] is the concentration of the labelled ligand and IC50 is the half maximal inhibitory concentration of the test compound.

Catalepsy in mice = assay: Cataleptic effect in mice (Schlichtegroll); assay type: in vivo; conditions: p.o.
Description: (§1) The cataleptic effect of the compounds was measured both in mice (Schlichtegroll: Arzneim. Forsch., 8, 489, [1958]) and in rats (Morpurgo: Arch. Int. Pharmacodyn., 137, 87, [1962]).

Catalepsy in rats = assay: Cataleptic effect in rats (Morpurgo); assay type: in vivo; conditions: p.o.
Description: as §1

[2] = tested on: spontaneous motor activity (SMA) in mice; assay: Behavioural effects according to Irwin (decrease in spontaneous motor activity); assay type: in vivo; set-up: key: ++ strong; + moderate; +- slight decrease in spon-taneous motor activity [SMA]
Description: (§2) The behavioural effects of 1-[2'-(substituted) vinyl]-5H-2,3-benzodiazepine derivatives according to the invention and of reference substances were measured according to the method of Irwin (Psychopharmacology, 13, 222 [1968]). The results and the acute toxicity data (dead/treated animals, shown in brackets) can be seen in the following Table II
(§3) From the above Table II it can be taken that the 1-[2'-(substituted) vinyl]-5H-2,3-benzodiazepine derivatives according to the invention considerably decrease the spontaneous motor activity (SMA) in mice after intraperitoneal or oral administration.

mice = assay: Acute toxicity (dead/treated animals) in the Irwin test; assay type: in vivo
Description: as §2, §3

[3] = tested on: spontaneous motor activity of mice; assay: Inhibition of spontaneous motor activity according to Borsy et al.; assay type: in vivo; conditions: Mus musculus, po, 0.5 h
Description: The potential antipsychotic activity of 1-[2'-(substituted) vinyl]-5H-2,3-benzodiazepine derivatives according to the invention and of reference substances was tested according to the method of Puech et al. (Psychopharmacology, 75, 84, [1981] by measuring their inhibiting effect on the "climbing" reaction induced by 5,6,6a,7-tetra-(hydro)-6-(methyl)-4H-dibenzo[de,g]quinoline-10,11-di-(ol){apomorphine}. The results have been expressed as ED50 values. Since the inhibition of the spontaneous motor activity (SMA) is an important characteristic of the antipsychotic drugs, the ED50 values of a number of compounds were determined according to the method of Borsy et al. (Arch. Int. Pharmacodyn., 124, 1, 196).
The effect of the 1-[2'-(substituted) vinyl]-5H-2,3-benzodiazepine derivatives according to the invention on the spontaneous motor activity was tested according to the method of Borsy et al. Groups consisting of 3 mice were treated orally with different doses of the compounds to be tested. Then the animals were placed into a 10-channel Dews system equipment, wherein the number of interruptions of infrared beam within 30 minutes was counted. […]

rats = assay: Elevated plus-maze test (Pellow), anxiolytic activity; assay type: in vivo; conditions: Rattus norvegicus, po, 1 h; p.o., elevated plus maze, Sprague Dawley rats, 60 minutes pretreatment, significant increase of time spent on open arms; read-out: Minimum effective dose
From the text: The anxiolytic activity was studied in rats according to the "lick-conflict" test elaborated by Vogel et al. (Psychopharmacology, 21, 1, [1971] and the elevated plus-maze test described by Pellow (Pellow, J.: Neurosci. Meth. 14, 149, [1985]). The antiaggressive effect was investigated in mice using the "fighting behaviour" method of Tedeschi (J. Pharm. Exp. Ther., 125, 28, [1959]). The minimal effective dose (MED) values and the ED50 values obtained are shown in the following Table V.
The anxiolytic activity of these compounds was investigated in the elevated plus maze test. Male rats belonging to the Sprague Dawley strain and weighing 220 to 260 g were used as test animals. The test was carried out with the aid of a wooden plus-shaped maze elevated to a height of 50 cm and containing two enclosed and two open arms (50 cm long and 15 cm wide). After 60 minutes pretreatment the animals were placed into the maze and observed for 5 minutes. The drug effect was expressed as percent increase of the time spent on the open arms and number of open arm entries. The minimum effective dose (MED) which caused a significant increase of the time spent on the open arms was calculated for every substance [Pelow, S., Chopin, P., File, S.E., Briley, M.: J. Neurosci. Methods 14, 149 to 167 [1985]).

[4] = p.o., mice, interruptions of infrared beam within 30 minutes, read-out: ID50 (the source's name)

| SMILES | Ki [1] | Behaviour ([2]; 300 mg/kg i.p.) | Behaviour ([2]; 1000 mg/kg p.o.) | acute toxicity (dead/treated animals) (mice; 300 mg/kg i.p.) | acute toxicity (dead/treated animals) (mice; 1000 mg/kg p.o.) | other results |
| --- | --- | --- | --- | --- | --- | --- |
| COc1ccc(C=CC2=NN=C(C)Cc3cc(OC)c(OC)cc32)cc1 [Example 9] | 18 nM |  |  |  |  |  |
| COc1cc2c(cc1OC)C(C=Cc1ccc([N+](=O)[O-])cc1)=NN=C(C)C2 [Example 12] | 17 nM |  |  |  |  |  |
| COc1ccc(C=CC2=NN=C(C)Cc3cc(OC)c(OC)cc32)cc1C [Example 14] | 16 nM |  |  |  |  |  |
| COc1cc2c(cc1OC)C(C=Cc1ccc(OC(C)C)cc1)=NN=C(C)C2 [Example 15] | 13 nM |  |  |  |  |  |
| COc1cc2c(cc1OC)C(C=Cc1cccc(OC(C)C)c1)=NN=C(C)C2 [Example 16] | 11 nM |  |  |  |  |  |
| COc1cc2c(cc1OC)C(C=Cc1ccccc1OC(C)C)=NN=C(C)C2 [Example 18] | 18 nM |  |  |  |  |  |
| COc1cc2c(cc1OC)C(C=Cc1ccc3c(c1OC)OCO3)=NN=C(C)C2 [Example 21] | 8 nM |  |  |  |  | Catalepsy in mice Minimal effective dose [MED] (Catalepsy in mice): >100 mg/kg; Catalepsy in rats Minimal effective dose [MED] (Catalepsy in rats): >100 mg/kg |
| COc1cc2c(cc1OC)C(C=Cc1ccc(F)cc1)=NN=C(C)C2 [Example 28] | 12 nM |  |  |  |  |  |
| COc1cc2c(cc1OC)C(C=Cc1ccccc1)=NN=C(C)C2 [Example 33] | 12 nM |  |  |  |  |  |
| COc1cc2c(cc1OC)C(C=Cc1ccccc1Br)=NN=C(C)C2 [Example 36] | 10 nM |  |  |  |  |  |
| CCC1C(C)=NN=C(C=Cc2ccc(N(C)C)cc2)c2cc(OC)c(OC)cc21 (stereo not shown) [Example 37] |  | + + | + + | 0/5 | 4/5 |  |
| COc1cc2c(cc1OC)C(C=Cc1ccc(OC)c(C(C)C)c1)=NN=C(C)C2 [Example 40] |  | + + | + + | 0/5 | 4/5 |  |
| CCCc1cc(C=CC2=NN=C(C)Cc3cc(OC)c(OC)cc32)ccc1OC [Example 41] | 16 nM |  |  |  |  |  |
| COc1cc2c(cc1OC)C(C=Cc1ccccc1C)=NN=C(C)C2 [Example 42] | 11 nM | + + | + + | 0/5 | 0/5 |  |
| COc1cc2c(cc1OC)C(C=Cc1ccc(C(F)(F)F)cc1)=NN=C(C)C2 [Example 45] | 15 nM |  |  |  |  |  |
| CCC1C(C)=NN=C(C=Cc2cccc(Cl)c2)c2cc(OC)c(OC)cc21 (stereo not shown) [Example 48] | 19 nM | + | +- | 0/5 | 0/5 |  |
| CCN(CC)c1ccc(C=CC2=NN=C(C)Cc3cc(OC)c(OC)cc32)cc1 [Example 49] | 10 nM | + + | + + | 0/5 | 3/5 |  |
| COc1cc2c(cc1OC)C(C=Cc1cccc(Cl)c1)=NN=C(C)C2 [Example 51] | 19 nM | + | + + | 0/6 | 0/6 | Catalepsy in mice Minimal effective dose [MED] (Catalepsy in mice): 100 mg/kg; Catalepsy in rats Minimal effective dose [MED] (Catalepsy in rats): >100 mg/kg |

| SMILES | Ki [1] | Behaviour ([2]; 300 mg/kg i.p.) | Behaviour ([2]; 1000 mg/kg p.o.) | acute toxicity (dead/treated animals) (mice; 300 mg/kg i.p.) | acute toxicity (dead/treated animals) (mice; 1000 mg/kg p.o.) | other results |
| --- | --- | --- | --- | --- | --- | --- |
| COc1cc2c(cc1OC)C(C=Cc1ccccc1Cl)=NN=C(C)C2 [Example 54] |  | + | + | 2/5 | 2/5 |  |
| COc1ccc(C=CC2=NN=C(C)Cc3cc(OC)c(OC)cc32)cc1Cl [Example 55] | 11 nM |  |  |  |  |  |
| COc1cc(OC)c(C=CC2=NN=C(C)Cc3cc(OC)c(OC)cc32)c(OC)c1 [Example 58] | 19 nM | + | + + | 0/5 | 0/5 |  |
| COc1cc(OC)c(OC)cc1C=CC1=NN=C(C)Cc2cc(OC)c(OC)cc21 [Example 59] | 16 nM |  |  |  |  |  |
| CCC1C(C)=NN=C(C=Cc2ccc(OC)c(OC)c2)c2cc(OC)c(OC)cc21 (stereo not shown) [Example 64] |  | + | +- | 0/5 | 0/5 |  |
| COc1cc2c(cc1OC)C(C=Cc1ccc3c(c1)OCO3)=NN=C(C)C2 [Example 67] | 5 nM | +- | + | 0/6 | 0/6 | Catalepsy in mice Minimal effective dose [MED] (Catalepsy in mice): >100 mg/kg; Catalepsy in rats Minimal effective dose [MED] (Catalepsy in rats): >100 mg/kg |
| COc1cc2c(cc1OC)C(C=Cc1c[nH]c3ccccc13)=NN=C(C)C2 [Example 71] | 5 nM |  |  |  |  |  |
| COc1cc2c(cc1OC)C(C=Cc1cccc(N)c1)=NN=C(C)C2 [Example 74] | 14 nM |  |  |  |  |  |
| COc1cc2c(cc1OC)C(C=Cc1ccc(Cl)c(N)c1)=NN=C(C)C2 [Example 77] | 10 nM | + + | + + | 0/5 | 0/5 |  |
| COc1cc2c(cc1OC)C(C=Cc1ccc(Cl)c(NC(C)=O)c1)=NN=C(C)C2 [Example 85, 1-[3'-(Acetylamino)-4-(chloro)-styryl]-4-[methyl]-7,8-di-[methoxy]-5H-2,3-benzodiazepine] | 14 nM | +- | + | 0/5 | 0/5 |  |
| CC1=NN=C(C=Cc2ccc(F)cc2)c2cc3c(cc2C1)OCO3 [Example 86, 1-[4'-(Fluoro)-styryl]-4-[methyl]-7,8-[methylenedioxy]-5H-2,3-benzodiazepine] |  |  |  |  |  | ED50 [3, 4]: > 100 mg/kg; minimal effective dose (rats): 0.003 mg/kg |
| CC1=NN=C(C=Cc2ccc(C(F)(F)F)cc2)c2cc3c(cc2C1)OCO3 [Example 87, 1-[4'-(Trifluoromethyl)-styryl]-4-[methyl]-7,8-[methylenedioxy]-5H-2,3-benzodiazepine] |  |  |  |  |  | ED50 [3, 4]: > 100 mg/kg; minimal effective dose (rats): 0.1 mg/kg |
| CC1=NN=C(C=Cc2ccc(C#N)cc2)c2cc3c(cc2C1)OCO3 [Example 88, 1-[4'-(Cyano)-styryl]-4-[methyl]-7,8-[methylenedioxy]-5H-2,3-benzodiazepine] |  |  |  |  |  | ED50 [3, 4]: > 100 mg/kg |
| CC1=NN=C(C=Cc2cccc(F)c2)c2cc3c(cc2C1)OCO3 [Example 89, 1-[3'-(Fluoro)-styryl]-4-[methyl]-7,8-[methylenedioxy]-5H-2,3-benzodiazepine] |  |  |  |  |  | minimal effective dose (rats): 0.3 mg/kg |
| CC1=NN=C(C=Cc2ccccc2F)c2cc3c(cc2C1)OCO3 [Example 90, 1-[2'-(Fluoro)-styryl)-4-[methyl]-7,8-[methylenedioxy]-5H-2,3-benzodiazepine] |  |  |  |  |  | minimal effective dose (rats): 0.3 mg/kg |
| CC1=NN=C(C=Cc2ccc(F)cc2)c2c(ccc3c2OCO3)C1 [Example 91, 1-[4'-(Fluoro)-styryl]-4-[methyl]-8,9-[methylenedioxy]-5H-2,3-benzodiazepine] |  |  |  |  |  | ED50 [3, 4]: > 100 mg/kg |
| CC1Cc2cc3c(cc2C(C=Cc2ccc(F)cc2)=NN1)OCO3 (stereo not shown) [Example 92, 1-[4'-(Fluoro)-styryl]-4-[methyl]-7,8-[methylenedioxy]-3,4-di-[hydro]-5H-2,3-benzodiazepine] |  |  |  |  |  | minimal effective dose (rats): 1 mg/kg |
| CN1C(=O)CN=C(c2ccccc2)c2cc(Cl)ccc21 [diazepam, 7-(chloro)-2,3-di-(hydro)-1-(methyl)-5-(phenyl)-1H-1,4-benzodiazepin-2-(one), reference compound] |  |  |  |  |  | ED50 ([3]; read-out: ID50): 23 mg/kg |
